For 1 compound, IC50 results are on record in article PMC8772930, “Experimental and Molecular Docking Studies of Cyclic Diphenyl Phosphonates as DNA Gyrase Inhibitors for Fluoroquinolone-Resistant Pathogens” (Antibiotics, 2022).

pIC50: −log10 of the molar value.

For the experiment, the target named is T1, DNA gyrase (Escherichia coli, UniProt P0AES6).
T1 construct: gene gyrB; with DNA gyrase subunit A (GyrA)
Description: DNA supercoiling inhibition assay (Inspiralis E. coli gyrase microplate kit, agarose gel). The class given is biochemical.

As to `NN1C=CCCC1P(=O)(Oc1ccccc1)Oc1ccccc1` (stereo not shown) [2a, cyclic diphenylphosphonate 2a], the negative-log IC50 (pIC50) was 4.92.
